{"source": "the OligoGym collection", "molecular_target": "HSD17B13", "details": "ASO, HepaRG", "note": "After the bases stand the sugars from the 5' end (letter, count) and the backbone: PS all phosphorothioate, else s phosphorothioate and o phosphodiester by linkage. Methylation of C is not given here. e = 2'-O-(2-methoxyethyl) (MOE); k = constrained ethyl (cEt); d = 2'-deoxy (DNA); m = 2'-O-methyl"}
{"sequence": "TAATACATTAGCAAGC (sugars kkdddddddddkekek, PS)", "values": [{"measurement": "target mRNA inhibition", "setting": "1 µM", "value": 34, "unit": "%"}]}
{"sequence": "GTAATCTTGAGGCAGG (sugars k3 d10 k3, PS)", "values": [{"measurement": "target mRNA inhibition", "setting": "1 µM", "value": 51, "unit": "%"}]}
{"sequence": "AGATTGGAATGCTACT (sugars k3 d10 k3, PS)", "values": [{"measurement": "target mRNA inhibition", "setting": "1 µM", "value": 63, "unit": "%"}]}
{"sequence": "CTATGTAATAGGCAGT (sugars k3 d10 k3, PS)", "values": [{"measurement": "target mRNA inhibition", "setting": "0.02 µM", "value": 18, "unit": "%"}, {"measurement": "target mRNA inhibition", "setting": "0.078 µM", "value": 20, "unit": "%"}, {"measurement": "target mRNA inhibition", "setting": "0.313 µM", "value": 63, "unit": "%"}, {"measurement": "target mRNA inhibition", "setting": "1 µM", "value": 73, "unit": "%"}, {"measurement": "target mRNA inhibition", "setting": "1.25 µM", "value": 75, "unit": "%"}, {"measurement": "target mRNA inhibition", "setting": "5 µM", "value": 86, "unit": "%"}]}
{"sequence": "TGAACAGTCTTAAACC (sugars k3 d1 m1 d8 k3, PS)", "values": [{"measurement": "target mRNA inhibition", "setting": "1 µM", "value": 57, "unit": "%"}]}
{"sequence": "CTACAAGAGGTTATTT (sugars k3 d10 k3, PS)", "values": [{"measurement": "target mRNA inhibition", "setting": "1 µM", "value": 31, "unit": "%"}]}
{"sequence": "CAAGAGGATAGTCCAT (sugars k3 d9 k3 e1, PS)", "values": [{"measurement": "target mRNA inhibition", "setting": "1 µM", "value": 64, "unit": "%"}]}
{"sequence": "CTACCTCCAAATTCCC (sugars k3 d10 k3, PS)", "values": [{"measurement": "target mRNA inhibition", "setting": "1 µM", "value": 27, "unit": "%"}]}
{"sequence": "AGTATGTTTATGTAAG (sugars k3 d10 k3, PS)", "values": [{"measurement": "target mRNA inhibition", "setting": "1 µM", "value": 48, "unit": "%"}]}
{"sequence": "TTGACATAACTTCATA (sugars k3 d10 k3, PS)", "values": [{"measurement": "target mRNA inhibition", "setting": "1 µM", "value": 15, "unit": "%"}]}
{"sequence": "AACTCCGTTATAAGTT (sugars k3 d10 k3, PS)", "values": [{"measurement": "target mRNA inhibition", "setting": "1 µM", "value": 11, "unit": "%"}]}
{"sequence": "GTTGCACCGTTTTGGG (sugars k3 d1 m1 d8 k3, PS)", "values": [{"measurement": "target mRNA inhibition", "setting": "1 µM", "value": 38, "unit": "%"}]}
{"sequence": "CTTTCTATCAACCTGC (sugars k3 d10 k3, PS)", "values": [{"measurement": "target mRNA inhibition", "setting": "1 µM", "value": 68, "unit": "%"}]}
{"sequence": "GTATTCCATCTATCAG (sugars kkdddddddddkekek, PS)", "values": [{"measurement": "target mRNA inhibition", "setting": "1 µM", "value": 48, "unit": "%"}]}
{"sequence": "TTGTTACATCACCCAC (sugars k3 d10 k3, PS)", "values": [{"measurement": "target mRNA inhibition", "setting": "1 µM", "value": 34, "unit": "%"}]}
{"sequence": "TGCTAAGTAGTAATTC (sugars k3 d10 k3, PS)", "values": [{"measurement": "target mRNA inhibition", "setting": "1 µM", "value": 32, "unit": "%"}]}
{"sequence": "TTAAACCTTCCCTGTG (sugars k3 d9 k3 e1, PS)", "values": [{"measurement": "target mRNA inhibition", "setting": "1 µM", "value": 18, "unit": "%"}]}
{"sequence": "CTACCACATACGCATG (sugars k3 d10 k3, PS)", "values": [{"measurement": "target mRNA inhibition", "setting": "1 µM", "value": 25, "unit": "%"}]}
{"sequence": "GAAATTGATACACCAA (sugars k3 d10 k3, PS)", "values": [{"measurement": "target mRNA inhibition", "setting": "1 µM", "value": 67, "unit": "%"}]}
{"sequence": "AATTTATTGGTATGGT (sugars k3 d10 k3, PS)", "values": [{"measurement": "target mRNA inhibition", "setting": "1 µM", "value": 30, "unit": "%"}]}
{"sequence": "CCAATTATGAATCTGC (sugars k3 d10 k3, PS)", "values": [{"measurement": "target mRNA inhibition", "setting": "1 µM", "value": 61, "unit": "%"}]}
{"sequence": "TTGAGATAAAGCTGCC (sugars kkdddddddddkekek, PS)", "values": [{"measurement": "target mRNA inhibition", "setting": "1 µM", "value": 2, "unit": "%"}]}
{"sequence": "GACTACATTAACACCA (sugars k3 d10 k3, PS)", "values": [{"measurement": "target mRNA inhibition", "setting": "1 µM", "value": 58, "unit": "%"}]}
{"sequence": "TGTGGCATGGCTACAG (sugars k3 d10 k3, PS)", "values": [{"measurement": "target mRNA inhibition", "setting": "1 µM", "value": 24, "unit": "%"}]}
{"sequence": "TGATGGTGATCAGAAG (sugars k3 d10 k3, PS)", "values": [{"measurement": "target mRNA inhibition", "setting": "1 µM", "value": 0, "unit": "%"}]}
{"sequence": "CTACTTGAACAGTCTT (sugars k3 d10 k3, PS)", "values": [{"measurement": "target mRNA inhibition", "setting": "0.02 µM", "value": 8, "unit": "%"}, {"measurement": "target mRNA inhibition", "setting": "0.078 µM", "value": 23, "unit": "%"}, {"measurement": "target mRNA inhibition", "setting": "0.313 µM", "value": 49, "unit": "%"}, {"measurement": "target mRNA inhibition", "setting": "1 µM", "value": 80, "unit": "%"}, {"measurement": "target mRNA inhibition", "setting": "1.25 µM", "value": 79, "unit": "%"}, {"measurement": "target mRNA inhibition", "setting": "5 µM", "value": 97, "unit": "%"}]}
{"sequence": "CCAATATGGGATGAGG (sugars k3 d10 k3, PS)", "values": [{"measurement": "target mRNA inhibition", "setting": "1 µM", "value": 60, "unit": "%"}]}
{"sequence": "ATAGTAATTGCTATAG (sugars k3 d10 k3, PS)", "values": [{"measurement": "target mRNA inhibition", "setting": "1 µM", "value": 36, "unit": "%"}]}
{"sequence": "GAGAAGATCGGCTGGA (sugars k3 d10 k3, PS)", "values": [{"measurement": "target mRNA inhibition", "setting": "1 µM", "value": 6, "unit": "%"}]}
{"sequence": "AGAGTCGGTCACCTTT (sugars k3 d10 k3, PS)", "values": [{"measurement": "target mRNA inhibition", "setting": "1 µM", "value": 71, "unit": "%"}]}
{"sequence": "CTAAGTAGTAATTCTA (sugars k3 d10 k3, PS)", "values": [{"measurement": "target mRNA inhibition", "setting": "1 µM", "value": 35, "unit": "%"}]}
{"sequence": "AAAGTGTCCTCGATCC (sugars k3 d10 k3, PS)", "values": [{"measurement": "target mRNA inhibition", "setting": "1 µM", "value": 36, "unit": "%"}]}
{"sequence": "CTGATTTAGAGAGCGA (sugars k3 d10 k3, PS)", "values": [{"measurement": "target mRNA inhibition", "setting": "1 µM", "value": 61, "unit": "%"}]}
{"sequence": "AGCTTTTGTCCACCTT (sugars k3 d10 k3, PS)", "values": [{"measurement": "target mRNA inhibition", "setting": "1 µM", "value": 57, "unit": "%"}]}
{"sequence": "CCTATATACATCCAAG (sugars k3 d10 k3, PS)", "values": [{"measurement": "target mRNA inhibition", "setting": "1 µM", "value": 53, "unit": "%"}]}
{"sequence": "TAAGGAGTAGTGGAGC (sugars k3 d10 k3, PS)", "values": [{"measurement": "target mRNA inhibition", "setting": "1 µM", "value": 18, "unit": "%"}]}
{"sequence": "ATTGTTAGCTAAGGGA (sugars k3 d10 k3, PS)", "values": [{"measurement": "target mRNA inhibition", "setting": "1 µM", "value": 22, "unit": "%"}]}
{"sequence": "TAGCAAAACACTTGCT (sugars k3 d10 k3, PS)", "values": [{"measurement": "target mRNA inhibition", "setting": "1 µM", "value": 21, "unit": "%"}]}
{"sequence": "AATTACTCCGTTCTGC (sugars k3 d10 k3, PS)", "values": [{"measurement": "target mRNA inhibition", "setting": "1 µM", "value": 6, "unit": "%"}]}
